In US20030055065A1, “Tricyclic amide and urea compounds useful for inhibition of G-protein function and for treatment of proliferative diseases” (priority 1993, published 2003):
Several values for one entry are separate records, joined by “and”; a condition that tells them apart may be missing. Equal entries are not always repeated. Where two headings read alike, the source gives them in different places.

Key:
[1] = system: Normal human HEPM fibroblasts; assay: Cell Mat Assay: density of mat cells (mIC50); type: cell-based
Protocol: (§1) Compound-induced colony inhibition was assayed by addition of serial dilutions of compound directly to the growth medium 24 h after tumor cell planting, and incubating cells for an additional 14 d to allow colony formation. Assays were terminated by rinsing monolayers twice with phosphate-buffered saline (PBS), fixing the monolayers with a 1% glutaraldehyde solution in PBS, then visualizing tumor cells by staining with X-Gal (Price, J., et al., Lineage analysis in the vertebrate nervous system by retrovirus-mediated gene transfer, Proc. Natl. Acad. Sci.84, 156-160(1987)). […] Both IC50 values were obtained by determining the density of tumor cells and mat cells by visual inspection and enumeration of cells per colony and the number of colonies under the microscope.

[2] = system: T24-BAG4 human bladder carcinoma cells expressing an activated H-ras gene; assay: Cell Mat Assay: tumor cell colony inhibition (tIC50); type: cell-based; details: inhibition of tumor cell growth
Protocol: as §1

[3] = molecular target: T1, farnesyl protein transferase (FPT), partially purified from rat brain (Rattus norvegicus, UniProt Q02293+Q04631); assay: Inhibition of farnesyl protein transferase (transfer of [3H]farnesyl to Ras-CVLS); type: biochemical
T1 construct: were partially purified from rat brain by ammonium sulfate fractionation followed by Q-Sepharose
Method in brief: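 Partially purified farnesyl protein transferase with His6-tagged val12-Ha-Ras-CVLS substrate and [3H]farnesyl pyrophosphate, 30 min at room temperature. Stopped with SDS/TCA, precipitated Ras collected on GF/C filters; percent inhibition relative to DMSO vehicle control.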

[4] = Ras-CVLS farnesylation, partially purified rat brain FPT, read-out: FPT IC50
[5] = FPT IC50, Ras-CVLS farnesylation, partially purified rat brain FPT

T1 sequence (Q02293 whole entry, one chain of several): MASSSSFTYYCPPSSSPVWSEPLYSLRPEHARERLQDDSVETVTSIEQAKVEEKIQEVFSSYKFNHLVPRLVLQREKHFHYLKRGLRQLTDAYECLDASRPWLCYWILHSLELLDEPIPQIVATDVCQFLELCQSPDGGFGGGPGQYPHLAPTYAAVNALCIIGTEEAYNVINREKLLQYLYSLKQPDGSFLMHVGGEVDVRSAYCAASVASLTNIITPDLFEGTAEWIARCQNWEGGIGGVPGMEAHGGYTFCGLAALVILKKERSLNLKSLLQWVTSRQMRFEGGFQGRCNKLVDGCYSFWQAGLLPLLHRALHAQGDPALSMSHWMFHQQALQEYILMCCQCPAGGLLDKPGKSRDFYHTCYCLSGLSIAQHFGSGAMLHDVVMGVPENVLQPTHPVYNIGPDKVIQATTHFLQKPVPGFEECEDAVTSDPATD

Row | IC50 ([2]; Homo sapiens) [µM] | IC50 [3, 4] | SMILES | IC50 ([1]; Homo sapiens, Fibroblast) [µM] | further results
1 | 6.25 | – | CN1CCCC(CC(=O)N2CCN(C3c4ccc(Cl)cc4CCc4cc(Br)cnc43)CC2)C1 (centres unmarked) [Example 425-U] | 10 | –
2 | – | 0.22 µM and 0.14 µM | O=C(Cc1ccncc1)N1CCC(=C2c3ccc(Cl)cc3C=Cc3cccnc32)CC1 [Example 307] | – | IC50 [1]: 50 µM; IC50 [2]: 12.5 µM
3 | > 50 | 3.3 µM | CC(C)(C(=O)N1CCN(C2c3ccc(Cl)cc3CCc3cccnc32)CC1)c1ccccc1 (centres unmarked) [Example 190] | > 50 | –
4 | 25 | 7.92 µM | O=C(Cc1ccccc1O)NCC(=O)N1CCN(C2c3ccc(Cl)cc3CCc3cccnc32)CC1 (centres unmarked) [Example 212] | 37 | –
5 | > 50 | – | O=C(Cc1ccc[n+]([O-])c1)N1CCC(C2c3ccc(Cl)cc3CCc3ccc[n+]([O-])c32)CC1 (centres unmarked) [Example 237] | > 50 | inhibition at 4 µM ([3]; at 4 μM): 18%
6 | < 3.1 | 4.9 µM | CC(C(=O)N1CCN(C2c3ccc(Cl)cc3CCc3cccnc32)CC1)c1cccnc1 (centres unmarked) [Example 191] | 50 | –
7 | – | 3.6 µM | O=C(Cc1ccncc1)N1CCC(=C2c3cc(F)ccc3CCc3cccnc32)CC1 [Example 310] | – | IC50 [1]: > 50 µM; IC50 [2]: 25 µM
8 | – | 0.04 µM and 0.075 µM | Cc1cnc2c(c1)CCc1cc(Cl)ccc1C2=C1CCN(C(=O)Cc2ccncc2)CC1 [Example 301] | > 50 | –
9 | – | 10.3 µM | CC(=O)N(C)CCC(=O)N1CCC(=C2c3ccc(Cl)cc3CCc3cccnc32)CC1 [Example 113] | – | –

Second part, the compound before the results:

Row | SMILES | IC50 ([2]; Homo sapiens) [µM] | IC50 [3, 4] | IC50 ([1]; Homo sapiens, Fibroblast) [µM] | further results
10 | O=C(Cc1ccncc1)N1CCC(=C2c3ccncc3CCc3cc(Cl)ccc32)CC1 [160 (5.39)] | – | – | – | IC50 [1]: 50 µM; IC50 [2]: 37 µM
11 | O=C(C1CCS(=O)(=O)CC1)N1CCC(=C2c3ccc(Cl)cc3CCc3cccnc32)CC1 [Example 95] | > 50 | 4.2 µM | > 50 | –
12 | O=C(Cc1ccccn1)N1CCN(C2c3ccc(Cl)cc3CCc3cccnc32)CC1 (centres unmarked) [Example 196] | 37 | – | > 50 | IC50 [3, 5]: 0.36 µM; IC50 ([2]; listed as 196 (5.69)): 25 µM
13 | O=C(Cc1ccccc1)N1CCN(C2c3ccc(Cl)cc3CCc3cccnc32)CC1 (centres unmarked) [Example 80] | > 50 | – | > 50 | IC50 [3, 5]: 2.73 µM
14 | O=C(/C=C/c1cccnc1)N1CCC(=C2c3ccc(Cl)cc3CCc3cccnc32)CC1 [Example 96] | 50 | 4.3 µM | > 50 | –
15 | O=C(C1CCC(O)CC1)N1CCC(=C2c3ccc(Cl)cc3CCc3cccnc32)CC1 (centres unmarked) [Example 97] | > 50 | 4.4 µM | > 50 | –
16 | CC(=O)N1CCC(CC(=O)N2CCN([C@@H]3c4ccc(Cl)cc4CCc4cccnc43)CC2)CC1 [225 (5.98)] | 12.5 | 3.5 µM | 50 | –
17 | O=C(Cc1cccnc1)N1CCN([C@@H]2c3ccc(Cl)cc3CCc3cccnc32)CC1 [223 (5.96)] | 25 | – | > 50 | IC50 [3, 5]: 2.1 µM
18 | O=C(Cc1cc[n+]([O-])cc1)N1CCN(C2c3ccc(Cl)cc3CCc3cc(Br)cnc32)CC1 (centres unmarked) [Example 425-H] | < 1.6 | – | > 25 | IC50 ([3]; FPT IC50, enzyme inhibition): 0.059 µM and 0.049 µM and 0.075 µM
19 | CC(=O)N1CCC(C(=O)N2CCN([C@@H]3c4ccc(Cl)cc4CCc4cccnc43)CC2)CC1 [226 (5.100)] | 25 | 4.1 µM | > 50 | –
20 | CC(C)(C)c1cnc2c(c1)CCc1cc(Cl)ccc1C2=C1CCN(C(=O)Cc2ccncc2)CC1 [Example 305] | – | – | – | IC50 [1]: > 50 µM; FPT inhibition ([3]; at 4 μM): 40% @4 μM; IC50 [2]: 25 µM
21 | CS(=O)(=O)c1ccc(C(=O)N2CCC(=C3c4ccc(Cl)cc4CCc4cccnc43)CC2)cc1 [Example 93] | 40 | 3.9 µM | > 50 | –
22 | O=C(CCCc1ccccc1)N1CCC(=C2c3ccc(Cl)cc3CCc3cccnc32)CC1 [Example 11] | – | 4.3 µM | – | IC50 [1]: > 50 µM; IC50 [2]: > 50 µM
23 | O=C(Nc1ccncc1)N1CCN(C2c3ccc(Cl)cc3CCc3cccnc32)CC1 (centres unmarked) [183 (6.5)] | 5 | – | 18 | –
24 | O=C(Cc1ccccc1[N+](=O)[O-])C(=O)N1CCC(=C2c3ccc(Cl)cc3CCc3cccnc32)CC1 [220 (5.93)] | – | – | – | IC50 [1]: > 50 µM; IC50 [2]: 25 µM
25 | O=C(C(=O)N1CCC(=C2c3ccc(Cl)cc3CCc3cccnc32)CC1)c1c[nH]c2ccccc12 [219 (5.92)] | – | – | – | IC50 [1]: > 50 µM; IC50 [2]: 25 µM
26 | O=C(Cc1ccc[n+]([O-])c1)N1CCN([C@H]2c3ccc(Cl)cc3CCc3cccnc32)CC1 [Example 425-G] | – | – | – | IC50 ([3]; FPT IC50, enzyme inhibition): 2.3 µM
27 | O=C(Cc1csc2ccccc12)N1CCC(=C2c3ccc(Cl)cc3CCc3cccnc32)CC1 [221 (5.94)] | – | – | – | IC50 [1]: > 50 µM; IC50 [2]: 6.25 µM
28 | O=C(Nc1cc[n+]([O-])cc1)N1CCN(C2c3ccc(Cl)cc3CCc3cccnc32)CC1 (centres unmarked) [Example 427] | – | – | – | IC50 ([3]; enzyme inhibition, read-out: FPT IC50): 1.8 µM
29 | CC(=O)N1CCC(=C2c3ccc(Cl)cc3CCc3cccnc32)CC1 [Example 59] | – | 26.9 µM | – | –
30 | O=C(c1ccnnc1)N1CCC(=C2c3ccc(Cl)cc3CCc3cccnc32)CC1 [Example 14] | – | 4.6 µM | – | –
